Experimental data taken from the supplement of paper PMC10307832.

Key:
Experiment in all cases: relative viability (nuclei count vs DMSO), 5 days (fraction); higher = more cells survive
201T = tested on: 201T
In short: (§1)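 After 5 days of treatment, lung cancer cells in 1536-well plates were fixed and stained in a single step (final 0.05% Triton X-100, 1% formaldehyde, 1 ug/ml Hoechst) and their nuclei counted on 4× images. Treatment had been applied by pin tool the day after seeding as one drug alone or as a fixed anchor-drug dose with five library-drug doses (not always all listed) in √10 steps. Relative viability is the nuclei count of treated wells divided by that of vehicle wells, and values are medians of duplicate plates.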

NCI-H322M = tested on: NCI-H322M
In short: as §1

H3255 = tested on: H3255
In short: as §1

LK-2 = tested on: LK-2
In short: as §1

NCI-H596 = tested on: NCI-H596
In short: as §1

NCI-H2087 = tested on: NCI-H2087
In short: as §1

NCI-H2170 = tested on: NCI-H2170
In short: as §1

NCI-H2126 = tested on: NCI-H2126
In short: as §1

LXF-289 = tested on: LXF-289
In short: as §1

CAL-12T = tested on: CAL-12T
In short: as §1

NCI-H441 = tested on: NCI-H441
In short: as §1

EMC-BAC-2 = tested on: EMC-BAC-2
In short: as §1

NCI-H1755 = tested on: NCI-H1755
In short: as §1

NCI-H2009 = tested on: NCI-H2009
In short: as §1

NCI-H647 = tested on: NCI-H647
In short: as §1

HOP-62 = tested on: HOP-62
In short: as §1

NCI-H1651 = tested on: NCI-H1651
In short: as §1

NCI-H1734 = tested on: NCI-H1734
In short: as §1

NCI-H1563 = tested on: NCI-H1563
In short: as §1

ABC-1 = tested on: ABC-1
In short: as §1

COCC1(CO)C(=O)C2CCN1CC2 (configuration not stated) [PRIMA-1MET] + CS(=O)(=O)N1CCN(Cc2cc3nc(-c4cccc5[nH]ncc45)nc(N4CCOCC4)c3s2)CC1 [Pictilisib] (partner 1 µM)
relative viability (201T; first compound 0.2 µM): 0.709
relative viability (201T; first compound 0.6325 µM): 0.593
relative viability (201T; first compound 2 µM): 0.525
relative viability (201T; first compound 6.325 µM): 0.741
relative viability (201T; first compound 20 µM): 0.694
relative viability (NCI-H322M; first compound 0.2 µM): 0.543
relative viability (NCI-H322M; first compound 6.325 µM): 0.492
relative viability (NCI-H322M; first compound 20 µM): 0.451
relative viability (H3255; first compound 0.2 µM): 0.493
relative viability (H3255; first compound 0.6325 µM): 0.437
relative viability (H3255; first compound 2 µM): 0.466
relative viability (H3255; first compound 6.325 µM): 0.469
relative viability (H3255; first compound 20 µM): 0.406
relative viability (LK-2; first compound 0.2 µM): 0.652
relative viability (LK-2; first compound 0.6325 µM): 0.57
relative viability (LK-2; first compound 2 µM): 0.359
relative viability (LK-2; first compound 6.325 µM): 0.364
relative viability (LK-2; first compound 20 µM): 0.16
relative viability (NCI-H596; first compound 0.2 µM): 0.406
relative viability (NCI-H596; first compound 0.6325 µM): 0.389
relative viability (NCI-H596; first compound 2 µM): 0.335
relative viability (NCI-H596; first compound 6.325 µM): 0.379
relative viability (NCI-H596; first compound 20 µM): 0.368
relative viability (NCI-H2087; first compound 0.2 µM): 0.413
relative viability (NCI-H2087; first compound 0.6325 µM): 0.848
relative viability (NCI-H2087; first compound 2 µM): 0.966
relative viability (NCI-H2087; first compound 6.325 µM): 0.642
relative viability (NCI-H2087; first compound 20 µM): 0.659
relative viability (NCI-H2170; first compound 0.2 µM): 0.312
relative viability (NCI-H2170; first compound 0.6325 µM): 0.276
relative viability (NCI-H2170; first compound 2 µM): 0.283
relative viability (NCI-H2170; first compound 6.325 µM): 0.336
relative viability (NCI-H2170; first compound 20 µM): 0.297
relative viability (NCI-H2126; first compound 0.2 µM): 0.459
relative viability (NCI-H2126; first compound 0.6325 µM): 0.485
relative viability (NCI-H2126; first compound 2 µM): 0.418
relative viability (NCI-H2126; first compound 6.325 µM): 0.548
relative viability (NCI-H2126; first compound 20 µM): 0.488
relative viability (LXF-289; first compound 0.2 µM): 0.691
relative viability (LXF-289; first compound 0.6325 µM): 0.743
relative viability (LXF-289; first compound 2 µM): 0.531
relative viability (LXF-289; first compound 6.325 µM): 0.717
relative viability (LXF-289; first compound 20 µM): 0.761
relative viability (CAL-12T; first compound 0.2 µM): 0.486
relative viability (CAL-12T; first compound 0.6325 µM): 0.421
relative viability (CAL-12T; first compound 2 µM): 0.315
relative viability (CAL-12T; first compound 6.325 µM): 0.332
relative viability (CAL-12T; first compound 20 µM): 0.0828
relative viability (NCI-H441; first compound 0.2 µM): 0.504
relative viability (NCI-H441; first compound 0.6325 µM): 0.325
relative viability (NCI-H441; first compound 2 µM): 0.473
relative viability (NCI-H441; first compound 6.325 µM): 0.411
relative viability (NCI-H441; first compound 20 µM): 0.264
relative viability (EMC-BAC-2; first compound 0.2 µM): 0.608
relative viability (EMC-BAC-2; first compound 0.6325 µM): 0.503
relative viability (EMC-BAC-2; first compound 2 µM): 0.343
relative viability (EMC-BAC-2; first compound 6.325 µM): 0.566
relative viability (EMC-BAC-2; first compound 20 µM): 0.583
relative viability (NCI-H1755; first compound 0.2 µM): 0.187
relative viability (NCI-H1755; first compound 0.6325 µM): 0.421
relative viability (NCI-H1755; first compound 2 µM): 0.206
relative viability (NCI-H1755; first compound 6.325 µM): 0.391
relative viability (NCI-H1755; first compound 20 µM): 0.3
relative viability (NCI-H2009; first compound 0.2 µM): 0.337
relative viability (NCI-H2009; first compound 0.6325 µM): 0.68
relative viability (NCI-H2009; first compound 2 µM): 0.506
relative viability (NCI-H2009; first compound 6.325 µM): 0.513
relative viability (NCI-H2009; first compound 20 µM): 0.0085
relative viability (NCI-H647; first compound 0.2 µM): 0.523
relative viability (NCI-H647; first compound 0.6325 µM): 0.384
relative viability (NCI-H647; first compound 6.325 µM): 0.412
relative viability (NCI-H647; first compound 20 µM): 0.165
relative viability (HOP-62; first compound 0.2 µM): 0.442
relative viability (HOP-62; first compound 0.6325 µM): 0.465
relative viability (HOP-62; first compound 2 µM): 0.368
relative viability (HOP-62; first compound 6.325 µM): 0.734
relative viability (HOP-62; first compound 20 µM): 0.392
relative viability (NCI-H1651; first compound 0.2 µM): 0.662
relative viability (NCI-H1651; first compound 0.6325 µM): 0.583
relative viability (NCI-H1651; first compound 2 µM): 0.505
relative viability (NCI-H1651; first compound 6.325 µM): 0.596
relative viability (NCI-H1651; first compound 20 µM): 0.44
relative viability (NCI-H1734; first compound 0.2 µM): 0.446
relative viability (NCI-H1734; first compound 0.6325 µM): 0.465
relative viability (NCI-H1734; first compound 2 µM): 0.408
relative viability (NCI-H1734; first compound 6.325 µM): 0.386
relative viability (NCI-H1734; first compound 20 µM): 0.0877
relative viability (NCI-H1563; first compound 0.2 µM): 0.645
relative viability (NCI-H1563; first compound 0.6325 µM): 0.696
relative viability (NCI-H1563; first compound 2 µM): 0.632
relative viability (NCI-H1563; first compound 6.325 µM): 0.629
relative viability (NCI-H1563; first compound 20 µM): 0.345
relative viability (ABC-1; first compound 0.2 µM): 0.71
relative viability (ABC-1; first compound 0.6325 µM): 0.5
relative viability (ABC-1; first compound 2 µM): 0.558
relative viability (ABC-1; first compound 6.325 µM): 0.669
relative viability (ABC-1; first compound 20 µM): 0.55
